Columns and labels:
UGT isozymes = conditions: cited from earlier work; for Isozymes Modulated: isozymes currently reported in the literature to be modulated by the compound
GST A1-1 = target: T1, GST A1-1 (Homo sapiens, UniProt P08263); test: Utilization of benzothiazole by GST A1-1; format: biochemical; conditions: 55 minutes at room temperature; for light produced with GST A1-1 minus no enzyme, concentrated substrate: concentrated substrate solution (approximately 1 mg/mL diluted 1:100), glutathione; for light produced with GST A1-1 minus no enzyme, diluted substrate: substrate solution diluted 1:3.1, glutathione
T1 sequence (P08263 1-222): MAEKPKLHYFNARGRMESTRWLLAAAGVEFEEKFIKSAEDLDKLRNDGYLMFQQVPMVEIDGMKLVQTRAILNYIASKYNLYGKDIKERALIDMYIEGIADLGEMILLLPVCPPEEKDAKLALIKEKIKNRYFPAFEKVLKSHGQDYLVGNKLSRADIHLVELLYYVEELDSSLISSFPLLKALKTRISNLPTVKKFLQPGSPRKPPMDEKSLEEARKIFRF
Description: (§1) A small amount of compound 934-37 was dissolved in DMSO to produce a solution approximately 1 mg/mL. This solution was diluted 1:100 (v/v) into 50 mM HEPES buffer pH 7.5 to produce a substrate solution. Twenty μL of this solution was placed in 10 wells of a 96 well white luminometer plate (Promega part Z3291), then the solution was diluted 1:3.1 and 20 μL of the dilution was placed into another 10 wells in the luminometer plate.
(§2) D-Cysteine, 4 mg (Sigma Chemical Corp.; C8005-1 g, 017K1034) was dissolved into 1 mL of 50 mM HEPES buffer pH 7.5, then 4 μL added to 4 of the wells containing the substrate solution and 4 of the wells with diluted substrate solution to convert compound 934-37 to the corresponding luciferin derivative. The structures of these compounds are shown below.
(§3) A sample of GST A1-1 (1.2 mg/mL) and 100 μL of 100 mM glutathione in water was diluted into 5 mL of 50 mM HEPES pH 7.5, then 25 μL added to: two of the wells with unconverted, concentrated compound 934-37; 2 wells with concentrated and converted compound 934-37; and two of the wells with unconverted, diluted compound 934-37 and 2 of the wells with converted, diluted compound 934-37.
(§4) Glutathione (100 μL of 100 mM glutathione) had been diluted to 5 mL with 50 mM HEPES buffer pH 7.5, then 25 μL added to the remaining wells of converted and unconverted compound 934-37 in concentrated and diluted solution.
(§5) After 55 minutes at room temperature, 4 μL of the D-cysteine solution above was added to all wells that had not received cysteine before, then 50 μL of P450 Glo Luciferin Detection Reagent (made by dissolving a vial of Promega Luciferin Detection Reagent (Promega Part #V859B) with a vial of Promega P450-Glo Buffer (Promega Part #V865B). The plate was then placed into a Glo Max luminometer (Promega Corp.) and the light read after 15 minutes of incubation. The values obtained were averaged and the average value of the light produced from the wells given no enzyme were then subtracted from the average of the light produced with enzyme.

GST M1-1 = target: T2, GST M1-1 (Homo sapiens, UniProt P09488); test: Utilization of benzothiazole by GST M1-1; format: biochemical; conditions: 55 minutes at room temperature; for light produced with GST M1-1 minus no enzyme, concentrated substrate: concentrated substrate solution (approximately 1 mg/mL diluted 1:100), glutathione; for light produced with GST M1-1 minus no enzyme, diluted substrate: substrate solution diluted 1:3.1, glutathione
T2 sequence (P09488 1-218): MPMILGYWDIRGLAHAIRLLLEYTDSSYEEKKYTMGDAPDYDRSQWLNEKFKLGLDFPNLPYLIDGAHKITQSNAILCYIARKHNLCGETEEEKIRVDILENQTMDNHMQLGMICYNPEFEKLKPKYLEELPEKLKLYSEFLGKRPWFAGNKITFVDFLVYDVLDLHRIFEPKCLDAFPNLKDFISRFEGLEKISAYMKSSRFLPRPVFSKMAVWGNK
Description: as §1, §2
as §3, with “M1-1” for “A1-1”, “glutathione” for “glutathione in water”
as §4, §5

UGT 1A4 = target: T3, UGT 1A4 (Homo sapiens, UniProt P22310); test: UGT activity: utilization of substrate by recombinant UGT 1A4 Supersomes; format: biochemical; conditions: 2 hour incubation at 37° C., plus vs minus UDPGA
T3 construct: purchased BD Gentest; host or cells: insect cells (microsomes)
T3 sequence (P22310 29-534): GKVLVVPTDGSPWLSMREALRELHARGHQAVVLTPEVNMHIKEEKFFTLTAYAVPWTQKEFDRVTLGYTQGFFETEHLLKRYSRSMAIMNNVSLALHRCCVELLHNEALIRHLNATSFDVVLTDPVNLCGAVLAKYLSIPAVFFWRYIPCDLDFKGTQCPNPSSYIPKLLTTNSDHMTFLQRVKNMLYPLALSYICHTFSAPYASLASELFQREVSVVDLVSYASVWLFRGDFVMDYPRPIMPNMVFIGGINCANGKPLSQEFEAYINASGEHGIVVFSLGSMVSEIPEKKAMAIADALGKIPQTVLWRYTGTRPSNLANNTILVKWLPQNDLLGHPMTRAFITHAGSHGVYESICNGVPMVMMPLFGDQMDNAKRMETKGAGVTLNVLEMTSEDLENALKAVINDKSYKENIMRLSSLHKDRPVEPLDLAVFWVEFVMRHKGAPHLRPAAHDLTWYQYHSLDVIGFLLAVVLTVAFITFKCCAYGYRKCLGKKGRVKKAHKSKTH
Description: The invention includes a method of determining activity of the uridine 5′-diphospho-glucuronosyltransferase (UDP-glucuronosyltransferase, or UGT) family enzymes in vitro. Briefly, UGT enzymes from overexpressed insect microsomes (Supersomes™, BD Gentest™) or animal tissue microsomes (Xenotech, BD Gentest™) were incubated with a cyanobenzothiazole substrate of the invention and the cofactor UDP-glucuronic acid (UDPGA) at 37° C. in buffer at physiological pH containing MgCl2 and alamethicin (typically, 50 mM TES, pH 7.5, 8 mM MgCl2, 4 mM UDPGA (Sigma) and 25 μg/mL alamethicin (Sigma)). Following the UGT enzyme reaction, an equal volume of P450-Glo Luciferin Detection Reagent (Promega) containing 15-30 mM D-cysteine-HCl.H2O (Sigma) was added and the plate was mixed and incubated at room temperature, typically for 20-30 minutes. P450-Glo Luciferin Detection Reagent can be prepared by dissolving a vial of Promega Luciferin Detection Reagent (Promega Part #V859B) with a vial of Promega P450-Glo Buffer (Promega Part #V865B).
(§6) During this incubation, the cysteine reacts with the cyanobenzathiozole substrate to yield a D-luciferin derivative. […] Therefore, activity of the UGT enzyme can be measured by analyzing the difference (lower or no output) in relative light units (RLU) of a sample in which glucuronidation occurs compared to a sample that was run under the same conditions with no added UDPGA cofactor.
In this example, a series of 12 recombinant UGTs expressed in insect microsomes (Supersomes™, BD Gentest™), as well as the control microsomes not expressing the UGT enzyme, were incubated with compound 3138, compound 3478, or compound 3165 as substrates, with or without the UDPGA co-factor. […]
Reactions were assembled in a white 96-well plate. […] After the incubation was completed, the plate was read on a Veritas™ luminometer (Turner BioSystems, Inc.; Sunnyvale, Calif.). […]

[1] = tested on: endogenously expressed UGT isozymes in mammalian microsomes; test: Utilization of compounds by mammalian microsomes; format: biochemical; conditions: 0.2 mg/mL microsomes, 50 μM compound, reactions run for 2 hours
Description: The invention includes a method of determining activity of the uridine 5′-diphospho-glucuronosyltransferase (UDP-glucuronosyltransferase, or UGT) family enzymes in vitro. […] Following the UGT enzyme reaction, an equal volume of P450-Glo Luciferin Detection Reagent (Promega) containing 15-30 mM D-cysteine-HCl.H2O (Sigma) was added and the plate was mixed and incubated at room temperature, typically for 20-30 minutes. P450-Glo Luciferin Detection Reagent can be prepared by dissolving a vial of Promega Luciferin Detection Reagent (Promega Part #V859B) with a vial of Promega P450-Glo Buffer (Promega Part #V865B).
as §6
Tissue microsomes were obtained from Xenotech LLC or BD Gentest.

human liver microsomes = test: Utilization of compound 3165 by human liver, renal and intestinal microsomes; format: biochemical; conditions: 2 hours at 37° C., 0.2 mg/mL microsomes, 50 μM compound
Description: (§7) The invention includes a method of determining activity of the uridine 5′-diphospho-glucuronosyltransferase (UDP-glucuronosyltransferase, or UGT) family enzymes in vitro. Briefly, UGT enzymes from overexpressed insect microsomes (Supersomes™, BD Gentest™) or animal tissue microsomes (Xenotech, BD Gentest™) were incubated with a cyanobenzothiazole substrate of the invention and the cofactor UDP-glucuronic acid (UDPGA) at 37° C. in buffer at physiological pH containing MgCl2 and alamethicin (typically, 50 mM TES, pH 7.5, 8 mM MgCl2, 4 mM UDPGA (Sigma) and 25 μg/mL alamethicin (Sigma)). […]
as §6
(§8) The ability of endogenously expressed UGT isozymes to utilize compounds 3138 and 3165 as substrates was determined in a similar manner to the assays with recombinant microsomes (Example 1). […]

rat liver microsomes = test: Utilization of compound 3165 by rat liver microsomes; format: biochemical; conditions: 2 hours at 37° C., 0.2 mg/mL microsomes, 50 μM compound
Description: as §7, §6, §8

mouse liver microsomes = test: Utilization of compound 3165 by mouse liver microsomes; format: biochemical; conditions: 2 hours at 37° C., 0.2 mg/mL microsomes, 50 μM compound
Description: as §7, §6, §8

For `O=c1cc(C(F)(F)F)c2ccc(O)cc2o1` [7-hydroxy-4-trifluoromethyl coumarin], the “Isozymes Modulated” value (UGT isozymes) is given as “Substrate for 1A1, 1A3, 1A6, 1A9, 2B7”.

For `C=C[C@H]1C[N@@]2CC[C@H]1C[C@@H]2[C@@H](O)c1ccnc2ccc(OC)cc12` [Quinidine], the “Isozymes Modulated” value (UGT isozymes) is listed as 2B7 and 2B15, others to a lesser extent.

For `CC(C)c1nc(CN(C)C(=O)N[C@H](C(=O)N[C@@H](Cc2ccccc2)C[C@H](O)[C@H](Cc2ccccc2)NC(=O)OCc2cncs2)C(C)C)cs1` [Ritonavir], the “inhibition of UGT isozymes as reported in the literature” value (UGT isozymes; literature report) is given as “inhibits UGT 1A 1 and 1A4, but has little effect on UGT 2B7”.

In the case of `O=c1ccc2ccc(O)cc2o1` [Umbelliferne], the “Isozymes Modulated” value (UGT isozymes) is listed as “Substrate of most isozymes”.

With `Cc1cc(S(=O)(=O)Oc2ccc3nc(C#N)sc3c2)ccc1[N+](=O)[O-]` [compound 934-37] the “light produced with GST A1-1 minus no enzyme, concentrated substrate” value (GST A1-1) was 164,400 RLU, the “light produced with GST A1-1 minus no enzyme, diluted substrate” value (GST A1-1) was 195,021 RLU and the “light produced with GST M1-1 minus no enzyme, concentrated substrate” value (GST M1-1) was 41,212 RLU. The “light produced with GST M1-1 minus no enzyme, diluted substrate” value (GST M1-1) was 30,428 RLU.

In the case of `Cc1cc(NCc2cccc(N)c2)cc2sc(C#N)nc12` [compound 3165], the “utilization by UGT 1A4 (in words)” value (UGT 1A4) is reported as “only utilized by UGT 1A4”, the “rate of utilization of compound 3165 by mammalian microsomes (compared with compound 3138)” value [1] is reported as “much slower” and the “utilization of compound 3165: human liver vs human renal and intestinal microsomes” value (human liver microsomes) is reported as “much higher for human liver microsomes than either human renal or human intestinal microsomes”. The “utilization of compound 3165 by rat liver microsomes” value (rat liver microsomes) was “Activity was also seen for both rat and mouse liver microsomes” and the “utilization of compound 3165 by mouse liver microsomes” value (mouse liver microsomes) was “Activity was also seen for both rat and mouse liver microsomes”.

For `Cc1cc(S(=O)(=O)Oc2ccc3nc(C4=N[C@@H](C(=O)O)CS4)sc3c2)ccc1[N+](=O)[O-]` [converted compound 934-37], the “light produced with GST A1-1 minus no enzyme, concentrated substrate” value (GST A1-1) was 6,410 RLU, the “light produced with GST A1-1 minus no enzyme, diluted substrate” value (GST A1-1) was 6,462 RLU and the “light produced with GST M1-1 minus no enzyme, concentrated substrate” value (GST M1-1) was 315,759 RLU. For the same molecule, the “light produced with GST M1-1 minus no enzyme, diluted substrate” value (GST M1-1) was 213,920 RLU.

From patent publication US8551721B2, “Bioluminescent detection of cyanohydroxy benzothiazole compounds” (Promega Corporation, priority 2008, dated 2013)
